Where two headings read alike, the source gives them in different places.
How the values were obtained:
[1] = tested on: APESV: bentgrass (Apera spica-venti); experiment: Post-emergent Test III, herbicidal activity in wheat and barley; assay type: in vivo; conditions: for pest or weed control at 35 g/ha / pest or weed control at 70 g/ha / pest or weed control at 140 g/ha: Apera spica-venti, post-emergence, 504 h, read-out: Visual Growth Reduction (%) 21 Days After Application APESV; for pest or weed control at 35 g/ha: 35 g ai/ha; for pest or weed control at 70 g/ha: 70 g ai/ha; for pest or weed control at 140 g/ha: 140 g ai/ha; for GR50 APESV / GR80 APESV: probit analysis
Summary of the method: (§1)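 Plants at the second to third true-leaf stage, grown in a greenhouse at about 18/17 °C with a 14 h photoperiod, were sprayed post-emergence at 187 L/ha with the high rate and ½× to 1/16× serial dilutions in an acetone/DMSO/crop-oil/surfactant carrier. Injury was rated visually at 21 d on a 0–100% scale, and GR20–GR90 were derived by probit analysis.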

[2] = as above; assay type: in vivo, Lolium multiflorum, Lolium rigidum; conditions: Lolium multiflorum, post-emergence, 504 h, read-out: Visual Growth Reduction (%) 21 Days After Application LOLSS; for pest or weed control at 35 g/ha: 35 g ai/ha; for pest or weed control at 70 g/ha: 70 g ai/ha; for pest or weed control at 140 g/ha: 140 g ai/ha
Summary of the method: as §1

[3] = dose for growth reduction of 50 percent, 21 days after application
[4] = dose for growth reduction of 80 percent, 21 days after application
[5] = Table 9, dose for 50 percent growth reduction, 21 d
[6] = Table 9, dose for 80 percent growth reduction, 21 d

Compound `Nc1c(F)c(-c2ccc(Cl)c(F)c2)nc(C(=O)O)c1Cl` [Compound 217] has a pest or weed control at 35 g/ha [1] of 85 to 94%, a pest or weed control at 70 g/ha [1] of 85 to 94% and a pest or weed control at 140 g/ha [1] of 95 to 100%. The “GR50 APESV” value [1, 3] was 6 g ai/ha, the “GR80 APESV” value [1, 4] was 15 g ai/ha and the pest or weed control at 35 g/ha [2] was 45 to 59%. For the same compound, the pest or weed control at 70 g/ha [2] was 60 to 74% and the pest or weed control at 140 g/ha [2] was 60 to 74%.
For `Nc1cc(-c2ccc(Br)c(F)c2F)nc(C(=O)O)c1Cl` [Compound 91], the pest or weed control at 35 g/ha [1] was 45 to 59%, the pest or weed control at 70 g/ha [1] was 45 to 59% and the pest or weed control at 140 g/ha [1] was 60 to 74%. The “GR50 APESV” value [1, 3] was 67 g ai/ha, the “GR80 APESV” value [1, 4] was greater than 140 g ai/ha and the pest or weed control at 35 g/ha [2] was 0 to 29%. For the same compound, the pest or weed control at 70 g/ha [2] was 0 to 29% and the pest or weed control at 140 g/ha [2] was 0 to 29%.
Compound `COC(=O)c1nc(-c2ccc(F)c(F)c2F)c(F)c(N)c1Cl` [Compound 186] has a pest or weed control at 35 g/ha [1] of 0 to 29%, a pest or weed control at 70 g/ha [1] of 0 to 29% and a pest or weed control at 140 g/ha [1] of 0 to 29%. The “GR50 APESV” value [1, 3] was greater than 140 g ai/ha, the “GR80 APESV” value [1, 4] was greater than 140 g ai/ha and the pest or weed control at 35 g/ha [2] was 0 to 29%. It also gave a pest or weed control at 70 g/ha [2] of 0 to 29% and a pest or weed control at 140 g/ha [2] of 0 to 29%.
For `C#Cc1ccc(-c2nc(N)c(OC)c(C(=O)O)n2)cc1` [Compound 28], the pest or weed control at 35 g/ha ([1]; Table 9, post-emergent, 21 d) was 0 to 29%, the pest or weed control at 70 g/ha ([1]; Table 9, post-emergent, 21 d) was 0 to 29% and the “GR50 APESV” value [1, 5] was greater than 140 g ai/ha. For the same compound, the “GR80 APESV” value [1, 6] was greater than 140 g ai/ha, the pest or weed control at 35 g/ha ([2]; Table 9, post-emergent, 21 d) was 0 to 29% and the pest or weed control at 70 g/ha ([2]; Table 9, post-emergent, 21 d) was 0 to 29%.
`C#Cc1ccc(-c2nc(N)c(OC)c(C(=O)O)n2)c(F)c1F` [Compound 154] showed a pest or weed control at 35 g/ha ([1]; Table 9, post-emergent, 21 d) of 0 to 29%, a pest or weed control at 70 g/ha ([1]; Table 9, post-emergent, 21 d) of 0 to 29% and a pest or weed control at 140 g/ha ([1]; Table 9, post-emergent, 21 d) of 0 to 29%. The “GR50 APESV” value [1, 5] was greater than 140 g ai/ha, the “GR80 APESV” value [1, 6] was greater than 140 g ai/ha and the pest or weed control at 35 g/ha ([2]; Table 9, post-emergent, 21 d) was 0 to 29%. The pest or weed control at 70 g/ha ([2]; Table 9, post-emergent, 21 d) was 0 to 29% and the pest or weed control at 140 g/ha ([2]; Table 9, post-emergent, 21 d) was 0 to 29%.
With `Nc1cc(-c2ccc(Br)cc2)nc(C(=O)O)c1Cl` [Compound 168] the pest or weed control at 35 g/ha ([1]; Table 9, post-emergent, 21 d) was 75 to 84%, the pest or weed control at 70 g/ha ([1]; Table 9, post-emergent, 21 d) was 85 to 94% and the “GR50 APESV” value [1, 5] was 21 g ai/ha. For the same compound, the “GR80 APESV” value [1, 6] was 57 g ai/ha, the pest or weed control at 35 g/ha ([2]; Table 9, post-emergent, 21 d) was 0 to 29% and the pest or weed control at 70 g/ha ([2]; Table 9, post-emergent, 21 d) was 45 to 59%.
With `COc1c(N)nc(-c2ccc(Br)cc2F)nc1C(=O)O` [Compound 46] the pest or weed control at 35 g/ha ([1]; Table 9, post-emergent, 21 d) was 0 to 29%, the pest or weed control at 70 g/ha ([1]; Table 9, post-emergent, 21 d) was 0 to 29% and the pest or weed control at 140 g/ha ([1]; Table 9, post-emergent, 21 d) was 45 to 59%. The “GR50 APESV” value [1, 5] was greater than 140 g ai/ha, the “GR80 APESV” value [1, 6] was greater than 140 g ai/ha and the pest or weed control at 35 g/ha ([2]; Table 9, post-emergent, 21 d) was 0 to 29%. For the same compound, the pest or weed control at 70 g/ha ([2]; Table 9, post-emergent, 21 d) was 30 to 44% and the pest or weed control at 140 g/ha ([2]; Table 9, post-emergent, 21 d) was 45 to 59%.
For `COC(=O)c1nc(-c2ccc(Br)cc2F)nc(N)c1OC` [Compound 35], the pest or weed control at 35 g/ha ([1]; Table 9, post-emergent, 21 d) was 0 to 29%, the pest or weed control at 70 g/ha ([1]; Table 9, post-emergent, 21 d) was 30 to 44% and the “GR50 APESV” value [1, 5] was 113 g ai/ha. The “GR80 APESV” value [1, 6] was greater than 140 g ai/ha, the pest or weed control at 35 g/ha ([2]; Table 9, post-emergent, 21 d) was 0 to 29% and the pest or weed control at 70 g/ha ([2]; Table 9, post-emergent, 21 d) was 30 to 44%.
`COC(=O)c1nc(-c2ccc(F)cc2)c(F)c(N)c1Cl` [Compound 204] showed a pest or weed control at 35 g/ha [1] of 0 to 29%, a pest or weed control at 70 g/ha [1] of 30 to 44% and a pest or weed control at 140 g/ha [1] of 60 to 74%. The “GR50 APESV” value [1, 3] was 106 g ai/ha, the “GR80 APESV” value [1, 4] was greater than 140 g ai/ha and the pest or weed control at 35 g/ha [2] was 0 to 29%. The pest or weed control at 70 g/ha [2] was 0 to 29% and the pest or weed control at 140 g/ha [2] was 0 to 29%.

Source: patent US9113629B2, “4-amino-6-(4-substituted-phenyl)-picolinates and 6-amino-2-(4-substituted-phenyl)-pyrimidine-4-carboxylates and their use as herbicides” (DOW AGROSCIENCES LLC, priority 2013, dated 2015)
